In paper PMC4494771, “Synthesis, structure, and biological activity of novel heterocyclic sulfonyl-carboximidamides” (Monatshefte Fur Chemie, 2013):
In brackets after ≈: the same amount, converted by molar mass.

Experiments:
SK-MEL-5 = experiment: NCI-60 DTP human tumor cell line screening
NCI-H460 = experiment: NCI-60 DTP human tumor cell line screening; type: cell-based
TK-10 = experiment: NCI-60 DTP human tumor cell line screening; type: cell-based
HCT-116 = experiment: NCI-60 DTP human tumor cell line screening; type: cell-based; details: Colon cancer HCT-116
MDA-MB-435 = experiment: NCI-60 DTP human tumor cell line screening; type: cell-based
T-47D = experiment: NCI-60 DTP human tumor cell line screening; type: cell-based; details: Breast cancer T-47D
NCI/ADR-RES = experiment: NCI-60 DTP human tumor cell line screening; type: cell-based
HOP-92 = experiment: NCI-60 DTP human tumor cell line screening; type: cell-based; details: Non-small cell lung cancer HOP-92
HOP-62 = experiment: NCI-60 DTP human tumor cell line screening; type: cell-based; details: Non-small cell lung cancer HOP-62
NCI-H322M = experiment: NCI-60 DTP human tumor cell line screening; type: cell-based; details: Non-small cell lung cancer NCI-H322M
UACC-62 = experiment: NCI-60 DTP human tumor cell line screening; type: cell-based; details: Melanoma UACC-62
K-562 = experiment: NCI-60 DTP human tumor cell line screening; type: cell-based
OVCAR-5 = experiment: NCI-60 DTP human tumor cell line screening; type: cell-based; details: Ovarian cancer OVCAR-5
SF-539 = experiment: NCI-60 DTP human tumor cell line screening; type: cell-based; details: CNS cancer SF-539
786-0 = experiment: NCI-60 DTP human tumor cell line screening; type: cell-based; details: Renal cancer 786-0
P. acnes ATCC 11827 = experiment: Antibacterial activity, MIC in broth serial dilution
Procedure: Compounds were tested at serial dilutions in bacterial broth starting at 100 μg/cm^3 (final concentration). P. acnes (ATCC 11827, lot 419697) was grown in thioglycollate nutrient broth (Hardy Diagnostics K29) for 72 h at 33 °C, then inoculated at the density equivalent to 0.5 McFarland standard and incubated with the test materials for another 72 h in an anaerobic environment. […] At the end of the incubation the MIC was assessed optically as the lowest concentration of a test material which caused no bacteria growth [34]. This optical assessment was further confirmed by measuring the absorbance at 655 nm with the BioRad 3550-UV microplate reader. The MIC was defined as at least 50 % inhibition of the increase of OD.

U251 = experiment: NCI-60 DTP human tumor cell line screening; type: cell-based; details: CNS cancer U251
DU-145 = experiment: NCI-60 DTP human tumor cell line screening; type: cell-based; details: Prostate cancer DU-145
SNB-75 = experiment: NCI-60 DTP human tumor cell line screening; type: cell-based; details: CNS cancer SNB-75
EKVX = experiment: NCI-60 DTP human tumor cell line screening; type: cell-based; details: Non-small cell lung cancer EKVX
SK-MEL-28 = experiment: NCI-60 DTP human tumor cell line screening; type: cell-based; details: Melanoma SK-MEL-28
SNB-19 = experiment: NCI-60 DTP human tumor cell line screening; type: cell-based; details: CNS cancer SNB-19
SF-295 = experiment: NCI-60 DTP human tumor cell line screening; type: cell-based; details: CNS cancer SF-295
SK-MEL-2 = experiment: NCI-60 DTP human tumor cell line screening; type: cell-based; details: Melanoma SK-MEL-2
NCI-H226 = experiment: NCI-60 DTP human tumor cell line screening; type: cell-based; details: Non-small cell lung cancer NCI-H226
[1] = tested on: neonatal human dermal fibroblasts (ATCC PCS-201-010); experiment: Cytotoxic activity, fibroblast proliferation (sulforhodamine B); type: cell-based
Procedure: Passage for normal neonatal human dermal fibroblasts (ATCC PCS-201-010, lot 58243223) were grown in DMEM with 5 % calf serum (Hyclone). For the experiment, cells were plated in DMEM/5 % serum at 2,000 cells/well in 96 well plates (plate 598) and were exposed to test materials for 96 h. MAP and bFGF were used as the positive controls and water, 1, 0.5, and 0.25 % DMSO were used as the negative controls. Plate growth was stopped and cells were stained with a sulforhodamine B dye. The dye was then dissolved and a colorimetric signal proportional to total cell/protein count was quantified with the BioRad microplate spectrophotometer 3550-UV at 570 nm with background subtraction at 660 nm and analyzed with Microplate Manager v.2 software for Macintosh (BioRad). Error bars represent standard errors of the mean (SEM). P values representing statistical significance were calculated using the t test.

CAKI-1 = experiment: NCI-60 DTP human tumor cell line screening; type: cell-based; details: Renal cancer CAKI-1
SK-OV-3 = experiment: NCI-60 DTP human tumor cell line screening; type: cell-based; details: Ovarian cancer SK-OV-3
MCF-7 = experiment: NCI-60 DTP human tumor cell line screening; type: cell-based
SF-268 = experiment: NCI-60 DTP human tumor cell line screening; type: cell-based; details: CNS cancer SF-268

`NC(=NS(=O)(=O)c1ccccc1Cl)c1ccc2ccccc2n1` [Compound 15, N′-(2-Chlorophenylsulfonyl)quinoline-2-carboximidamide] gave a GI50 (SK-MEL-5; Homo sapiens, SK-MEL-5) of 3.31 µM, a CC50 (SK-MEL-5; Homo sapiens, SK-MEL-5, read-out: LC 50) of 36.2 µM and a TGI (SK-MEL-5; Melanoma SK-MEL-5) of 50.50 µM. The inhibition at 10 µM (NCI-H460; Homo sapiens, NCI-H460, read-out: Growth inhibition ΔGI) was 19.6%, the GI50 (NCI-H460; Homo sapiens, Non-small cell lung cancer NCI-H460) was 4.02 µM and the TGI (NCI-H460; Non-small cell lung cancer NCI-H460) was “^c (Determined TGI values were >100 μM)”. The inhibition at 10 µM (TK-10; Homo sapiens, TK-10, read-out: Growth inhibition ΔGI) was 21.7%, the GI50 (TK-10; Homo sapiens, Renal cancer TK-10) was 6.02 µM and the TGI (TK-10; Renal cancer TK-10) was 7.08 µM. For the same compound, the TGI (HCT-116) was “^c (Determined TGI values were >100 μM)”, the GI50 (HCT-116; Homo sapiens) was 4.66 µM and the inhibition at 10 µM (MDA-MB-435; Homo sapiens, MDA-MB-435, read-out: Growth inhibition ΔGI) was 80.4%. The GI50 (MDA-MB-435; Homo sapiens, Melanoma MDA-MB-435) was 1.13 µM, the TGI (MDA-MB-435; Melanoma MDA-MB-435) was 3.78 µM and the TGI (T-47D) was “^c (Determined TGI values were >100 μM)”. For the same compound, the GI50 (T-47D; Homo sapiens, T47D) was 7.04 µM, the inhibition at 10 µM (NCI/ADR-RES; Homo sapiens, NCI/ADR-RES, read-out: Growth inhibition ΔGI) was 42.9% and the GI50 (NCI/ADR-RES; Homo sapiens, Ovarian cancer NCI/ADR-RES) was 2.32 µM. The TGI (NCI/ADR-RES; Ovarian cancer NCI/ADR-RES) was 50.50 µM, the GI50 (HOP-92; Homo sapiens) was 9.34 µM and the TGI (HOP-92) was 90.80 µM. For the same compound, the GI50 (HOP-62; Homo sapiens) was 5.37 µM, the TGI (HOP-62) was “^c (Determined TGI values were >100 μM)” and the GI50 (NCI-H322M; Homo sapiens) was 5.19 µM. The TGI (NCI-H322M) was “^c (Determined TGI values were >100 μM)”, the GI50 (UACC-62; Homo sapiens) was 6.07 µM and the TGI (UACC-62) was “^c (Determined TGI values were >100 μM)”. For the same compound, the inhibition at 10 µM (K-562; Homo sapiens, K562, read-out: Growth inhibition ΔGI) was 35.9%, the GI50 (K-562; Homo sapiens, K562, Leukemia K-562) was 3.11 µM and the TGI (K-562; Leukemia K-562) was “^c (Determined TGI values were >100 μM)”. The GI50 (OVCAR-5; Homo sapiens) was 7.71 µM, the TGI (OVCAR-5) was “^c (Determined TGI values were >100 μM)” and the TGI (SF-539) was “^c (Determined TGI values were >100 μM)”. The GI50 (SF-539; Homo sapiens) was 4.19 µM, the GI50 (786-0; Homo sapiens) was 4.94 µM and the TGI (786-0) was “^c (Determined TGI values were >100 μM)”. The MIC (P. acnes ATCC 11827; Cutibacterium acnes, ATCC11827, 72 h, read-out: MIC P. acnes, P. acnes ATCC 11827, 72 h anaerobic) was 12.5 to 50 µg/mL (≈ 36.1 to 145 µM), the “MIC P. acnes” value (P. acnes ATCC 11827; P. acnes ATCC 11827, 72 h anaerobic) was 12.5 µg/mL (≈ 36.1 µM) and the TGI (U251) was “^c (Determined TGI values were >100 μM)”. The GI50 (U251; Homo sapiens, U-251) was 4.48 µM, the GI50 (DU-145; Homo sapiens) was 4.96 µM and the TGI (DU-145) was “^c (Determined TGI values were >100 μM)”. It also gave a TGI (SNB-75) of 30.60 µM, a GI50 (SNB-75; Homo sapiens) of 2.52 µM and a GI50 (EKVX; Homo sapiens) of 8.75 µM. The TGI (EKVX) was “^c (Determined TGI values were >100 μM)”, the GI50 (SK-MEL-28; Homo sapiens) was 5.45 µM and the TGI (SK-MEL-28) was 12.00 µM. The TGI (SNB-19) was “^c (Determined TGI values were >100 μM)”, the GI50 (SNB-19; Homo sapiens) was 5.61 µM and the TGI (SF-295) was 86.30 µM. For the same compound, the GI50 (SF-295; Homo sapiens) was 3.83 µM, the GI50 (SK-MEL-2; Homo sapiens) was 3.4 µM and the TGI (SK-MEL-2) was “^c (Determined TGI values were >100 μM)”. For the same compound, the GI50 (NCI-H226; Homo sapiens) was 10.8 µM, the TGI (NCI-H226) was “^c (Determined TGI values were >100 μM)” and the growth inhibitory activity ([1]; 6.25 μg/cm^3) was 70%. The “cytotoxic activity on fibroblast proliferation” value ([1]; 96 h, 6.25–100 μg/cm^3) was “strongly cytotoxic”, the GI50 (CAKI-1; Homo sapiens) was 5.21 µM and the TGI (CAKI-1) was “^c (Determined TGI values were >100 μM)”. For the same compound, the GI50 (SK-OV-3; Homo sapiens) was 3.93 µM, the TGI (SK-OV-3) was “^c (Determined TGI values were >100 μM)” and the TGI (MCF-7; Breast cancer MCF-7) was “^c (Determined TGI values were >100 μM)”. The inhibition at 10 µM (MCF-7; Homo sapiens, MCF7, read-out: Growth inhibition ΔGI) was 15.7%, the GI50 (MCF-7; Homo sapiens, MCF7, Breast cancer MCF-7) was 3.28 µM and the TGI (SF-268) was “^c (Determined TGI values were >100 μM)”. It also gave a GI50 (SF-268; Homo sapiens) of 6.79 µM.
